Results from patent US9643930B2, “Substituted indazole derivatives as in vitro MAO-B inhibitors” (“NTZ LAB” LTD., priority 2013, dated 2017).
Where two headings read alike, the source gives them in different places.

Key:
human MAO-B [1] = target: T1, human MAO-B (Homo sapiens, UniProt P27338); assay: MAO-B reactivation experiment (time-dependent inhibition, reversibility); conditions: compound at IC80; p-tyramine raised from 10 μM to 1.0 mM; monitored 5 hours
T1 sequence (P27338 1-520): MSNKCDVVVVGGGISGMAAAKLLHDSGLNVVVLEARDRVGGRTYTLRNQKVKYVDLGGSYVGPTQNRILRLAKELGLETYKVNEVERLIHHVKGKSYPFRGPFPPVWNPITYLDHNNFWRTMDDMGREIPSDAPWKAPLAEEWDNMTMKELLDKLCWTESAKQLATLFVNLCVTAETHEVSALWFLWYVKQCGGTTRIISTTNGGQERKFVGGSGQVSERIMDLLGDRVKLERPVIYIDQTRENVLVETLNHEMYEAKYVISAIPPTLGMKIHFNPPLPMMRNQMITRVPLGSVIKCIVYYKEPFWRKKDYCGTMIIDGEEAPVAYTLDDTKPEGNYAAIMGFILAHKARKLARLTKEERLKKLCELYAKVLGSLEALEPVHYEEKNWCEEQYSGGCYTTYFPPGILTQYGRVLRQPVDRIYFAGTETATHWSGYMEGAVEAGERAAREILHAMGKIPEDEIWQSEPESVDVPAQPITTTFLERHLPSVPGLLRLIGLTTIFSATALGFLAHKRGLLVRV

rat MAO-B = target: T2, rat MAO-B (Rattus norvegicus, UniProt P19643); assay: Rat MAO-B assay (Amplex Red fluorescence, rat liver mitochondria pre-treated with clorgyline 30 nM); type: biochemical; conditions: rat liver mitochondria pre-treated with clorgyline 30 nM; read-out: rat MAO-B (rat liver mitochondria) IC50
T2 construct: from tissue; host or cells: rat liver mitochondria (male Sprague-Dawley rats)
T2 sequence (P19643 1-520): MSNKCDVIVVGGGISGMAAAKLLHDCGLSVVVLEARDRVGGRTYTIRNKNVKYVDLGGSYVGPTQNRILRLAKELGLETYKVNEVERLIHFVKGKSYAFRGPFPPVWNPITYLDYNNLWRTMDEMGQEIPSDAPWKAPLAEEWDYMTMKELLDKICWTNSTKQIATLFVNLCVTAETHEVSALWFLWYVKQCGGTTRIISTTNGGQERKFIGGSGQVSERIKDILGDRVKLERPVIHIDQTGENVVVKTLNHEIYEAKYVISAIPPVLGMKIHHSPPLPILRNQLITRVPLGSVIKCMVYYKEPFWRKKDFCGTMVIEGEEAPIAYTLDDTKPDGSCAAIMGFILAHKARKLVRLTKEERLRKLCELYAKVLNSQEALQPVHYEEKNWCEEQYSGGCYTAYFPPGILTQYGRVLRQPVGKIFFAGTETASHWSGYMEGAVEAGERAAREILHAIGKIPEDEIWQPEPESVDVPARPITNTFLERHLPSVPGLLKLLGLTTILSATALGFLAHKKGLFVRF
Protocol: (§1) Male Sprague-Dawley (Harlan Sprague Dawley, Dublin, Va., US) rats (250-300 g) were sacrificed under light anesthesia and their livers were dissected. […] After homogenization, the volume is adjusted to 100 mL with the same buffer. After a low speed centrifugation (10 min at 600 g; 4° C.), the supernatant is further centrifuged at 15,000 rpm for 5 min at +4° C. The resulting pellet was resuspended in 2.0 mL of a 50 mM sodium/phosphate buffer (pH 7.4) and stored at −80° C. in aliquots of 1.0 mL each until further use.
(§2) The Amplex® Red reagent was prepared as recommended in the kit from Invitrogen (A12214). […] Clorgyline (1.0 μM) from Sigma Aldrich (M3778) was used to determine non-MAO-A enzyme activity and concentration-response curves of clorgyline serve as positive control.

rat MAO-A = target: T3, rat MAO-A (Rattus norvegicus, UniProt P21396); assay: Rat MAO-A assay (Amplex Red fluorescence, rat liver mitochondria pre-treated with deprenyl); type: biochemical; conditions: for inhibition at 10 µM: read-out: rat MAO-A (rat liver mitochondria) % inhibition at 10 μM
T3 construct: from tissue; host or cells: rat liver mitochondria (male Sprague-Dawley rats)
T3 sequence (P21396 1-526): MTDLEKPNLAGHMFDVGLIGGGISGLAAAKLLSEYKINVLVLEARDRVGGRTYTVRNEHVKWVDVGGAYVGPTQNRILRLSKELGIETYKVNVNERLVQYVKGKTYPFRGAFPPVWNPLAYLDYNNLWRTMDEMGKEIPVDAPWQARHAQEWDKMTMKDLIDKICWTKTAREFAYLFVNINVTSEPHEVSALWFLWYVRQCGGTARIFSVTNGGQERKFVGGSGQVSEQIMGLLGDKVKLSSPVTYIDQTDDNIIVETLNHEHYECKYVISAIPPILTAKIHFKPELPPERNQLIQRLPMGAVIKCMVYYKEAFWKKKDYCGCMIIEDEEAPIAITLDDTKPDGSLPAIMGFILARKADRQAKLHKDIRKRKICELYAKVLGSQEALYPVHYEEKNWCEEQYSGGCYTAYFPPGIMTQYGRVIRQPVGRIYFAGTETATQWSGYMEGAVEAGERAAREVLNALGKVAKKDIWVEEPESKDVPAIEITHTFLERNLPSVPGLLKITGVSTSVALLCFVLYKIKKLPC
Protocol: as §1, §2

human MAO-B [2] = target: T1, human MAO-B; assay: Assay for mode of MAO-B inhibition (substrate-dependent kinetics, Lineweaver-Burk plots); type: biochemical; design: purchased Sigma-Aldrich M7441; host or cells: baculovirus-infected insect cells (microsomal product); conditions: p-tyramine 0.05-[…]; inhibitor 0.1-10 nM; n=2
Protocol: The type of MAO-B enzyme inhibition was determined by Michaelis-Menten kinetic experiments and sets of Lineweaver-Burk plots were generated. The reciprocal MAO-B activity was plotted against the reciprocal substrate concentration (n=2). […] The enzymatic reactions and measurements were performed using human MAO-B assay conditions, applied for the determination of IC50 values. The experiment was performed in duplicate.

[3] = Solubility in organic solvents and in water (physicochemical properties, Table 1); conditions: for solubility: water, aqueous buffer
human MAO-A = target: T4, human MAO-A (Homo sapiens, UniProt P21397); assay: Human MAO-A assay (recombinant enzyme, Amplex Red fluorescence); conditions: for inhibition at 10 µM: read-out: human MAO-A % inhibition at 10 μM
T4 sequence (P21397 1-527): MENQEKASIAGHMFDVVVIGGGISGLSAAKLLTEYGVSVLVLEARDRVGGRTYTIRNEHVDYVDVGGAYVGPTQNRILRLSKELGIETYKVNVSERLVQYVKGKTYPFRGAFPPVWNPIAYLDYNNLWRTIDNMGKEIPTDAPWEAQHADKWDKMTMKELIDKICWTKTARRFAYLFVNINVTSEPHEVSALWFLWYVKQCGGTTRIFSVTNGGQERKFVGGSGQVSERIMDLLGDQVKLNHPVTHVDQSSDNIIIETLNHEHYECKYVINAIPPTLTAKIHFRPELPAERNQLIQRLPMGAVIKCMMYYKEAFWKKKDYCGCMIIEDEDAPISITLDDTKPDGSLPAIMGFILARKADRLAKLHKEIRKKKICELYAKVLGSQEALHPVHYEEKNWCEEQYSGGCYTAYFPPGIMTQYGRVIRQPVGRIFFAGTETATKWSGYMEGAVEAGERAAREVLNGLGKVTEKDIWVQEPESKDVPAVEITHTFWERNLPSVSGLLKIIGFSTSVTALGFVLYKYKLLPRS

[4] = Storage stability (physicochemical properties, Table 1); conditions: specified storage temperature (room temperature)
human MAO-B [5] = target: T1, human MAO-B; assay: Human MAO-B assay (recombinant enzyme, Amplex Red fluorescence); type: biochemical; design: purchased Sigma-Aldrich M7441; host or cells: baculovirus-infected insect cells (microsomal product); conditions: p-tyramine 150 μM
[6] = rat liver mitochondria, substrate p-tyramine, read-out: rat MAO-A (rat liver mitochondria) IC50

SMILES	reversibility of MAO-B inhibition (enzyme reactivation after raising substrate) (human MAO-B [1])	IC50 (rat MAO-B) [nM]	IC50 (rat MAO-A) [µM]	inhibition at 10 µM (rat MAO-A; rat liver mitochondria) [%]	mode of MAO-B inhibition (Lineweaver-Burk plots) (human MAO-B [2])	Solubility in water ([3]; hot water)	Solubilty inorganic solvents ([3]; in DMSO, DMF, MeOH, EtOH, i-PrOH, n-BuOH, t-BuOH, acetonitrile (Soluble))	Solubilty inorganic solvents ([3]; in petroleum ether, Et2O and n-hexane (Insoluble))	solubility ([3]; at 22.5° C., pH 7.4) [µg/mL]	solubility ([3]; at 90° C., pH 7.4, pH 1.0) [µg/mL]	inhibition at 10 µM (human MAO-A) [%]	Stability [4]	IC50 (rat MAO-A; [6]) [µM]	IC50 (human MAO-A; read-out: human MAO-A IC50, recombinant human enzyme, p-tyramine 150 μM) [nM]	IC50 (human MAO-B [5]) [nM]	melting point [°C]	IC50 (human MAO-A) [nM]
C[C@H](NCc1ccc(OCc2cccc(F)c2)cc1)C(N)=O [safinamide, reference compound]	The same result was observed																
Cn1ncc2cc(C(=O)Nc3ccc(Cl)c(Cl)c3)ccc21 [Example 13]	reversible MAO-B inhibitors	1.32 ± 0.09	> 10	42	linear and intersected at the y-axis with the plot for the uninhibited enzyme	Very slightly soluble in hot water	Soluble (0.01-0.03 mL per 1.0 mg) in DMSO, DMF,	Insoluble (>10 mL per 1.0 mg) in petroleum ether,	< 0.01	< 0.035	37	Stable under specified storage temperature (room					
O=C(Nc1ccc(Cl)c(O)c1)c1ccc2[nH]ncc2c1 [Example 6, N-(4-chloro-3-hydroxyphenyl)-1H-indazole-5-carboxamide]		385 ± 9		43							81		> 10	3000 ± 122	37.5 ± 7.3	306.6 to 307.3	
COc1ccc(NC(=O)c2ccc3[nH]ncc3c2)cc1Cl [Example 3, N-(3-chloro-4-methoxy)-1H-indazole-5-carboxamide]		21.9 ± 3.4		13							30		> 10		3.42 ± 0.28	276.2 to 277.8	> 10000
